Source: ChEMBL document CHEMBL1201862, “PubChem BioAssay data set” (2004)
Calls of active or inactive are those of the source.

Columns and labels:
Paired box protein Pax-8 = Paired box protein Pax-8 (Homo sapiens, UniProt Q06710); assay: PAX8 transcriptional activity inhibition in RMG-I – RMG-I cells, luciferase, cherry-pick, dose response (AID 687027); assay type: functional, cell-based;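 note: luciferase reporter driven by Pax8 target thyroperoxidase promoter measured by SteadyGlo luminescence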
Paired box protein Pax-8, sequence (Q06710 whole entry): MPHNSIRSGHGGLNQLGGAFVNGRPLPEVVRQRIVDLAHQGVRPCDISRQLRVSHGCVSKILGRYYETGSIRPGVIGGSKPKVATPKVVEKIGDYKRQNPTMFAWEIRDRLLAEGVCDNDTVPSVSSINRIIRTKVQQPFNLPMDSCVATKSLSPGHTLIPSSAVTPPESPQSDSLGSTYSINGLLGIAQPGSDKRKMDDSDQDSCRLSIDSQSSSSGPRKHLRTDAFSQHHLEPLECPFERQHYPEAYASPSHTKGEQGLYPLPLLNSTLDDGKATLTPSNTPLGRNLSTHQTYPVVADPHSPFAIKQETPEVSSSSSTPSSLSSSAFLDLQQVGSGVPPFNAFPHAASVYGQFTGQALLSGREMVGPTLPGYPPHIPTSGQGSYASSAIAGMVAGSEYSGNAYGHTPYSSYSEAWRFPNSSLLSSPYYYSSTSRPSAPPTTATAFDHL

[1] = luciferase reporter signal suppression in cells – H4 neuroglioma cells, luminescence, dose response (AID 1990); assay type: functional, cell-based
[2] = Luminescence Cell-Based Dose Response HTS to Identify Inhibitors of 5'UTR Stem-Loop Driven Prion Protein mRNA Translation in H4 Neuroglioblastoma Cells. [Related pubchem assays: 1827 (Project Summary), 1813 (Primary HTS)]; assay type: functional
[3] = alpha-synuclein stem-loop luciferase translation blockers – H4 neuroglioma cells, luminescence, confirmation (AID 1988); assay type: functional, cell-based
[4] = Trypanosoma cruzi growth suppression in host cells – NIH3T3 host cells, beta-gal luminescence, confirmation (AID 2044); assay type: functional, cell-based;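 note: intracellular parasites grown in NIH/3T3 mouse fibroblasts as host cells; luminescent beta-galactosidase reporter signal from transgenic T. cruzi replicating inside host cells; inhibitors lower the luminescence signal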
[5] = NIH3T3 cell viability loss – ATP luminescence, mouse fibroblasts, counter-screen, dose response (AID 2010); assay type: functional, cell-based;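 note: cells exposed to compound for about 90 hours before reading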
[6] = Luminescence Cell-Based Dose Retest to Confirm Inhibitors of Cancer Stem Cells. [Related pubchem assays (depositor defined):AID2717, AID2721]; assay type: functional; settings: Homo sapiens
[7] = viability of uninfected HEp-2 cells – cell-based, HTS, cytotoxicity control for RSV inhibitor project, dose response (AID 2410); assay type: functional; settings: human respiratory syncytial virus
[8] = loss of viability in HepG2 cells – cell-based, CellTiter-Glo, cherry-picked, cytotoxicity control for Shn3 inhibitor project, dose response (AID 624134); assay type: functional
[9] = non-specific 3'UTR reporter inhibition in Clone20-Shn3RL – cell-based, Renilla luciferase, cherry-picked, counter-screen for Shn3 inhibitor project, dose response (AID 624133); assay type: functional
INS1 = assay: INS-1E survival protection against cytokine death – cell-based, luminescence, retest, dose response (AID 449756); assay type: functional; settings: Rattus norvegicus;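 note: cell death triggered by IL-1 beta plus TNF-alpha plus IFN-gamma mixture; protective hits raise ATP signal compared with cytokine alone wells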
Cytochrome P450 1A2 = molecular target: T1, Cytochrome P450 1A2 (Homo sapiens, UniProt P05177);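 note: PubChem cytochrome P450 panel assay, CYP1A2 panel member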
T1 sequence (P05177 whole entry): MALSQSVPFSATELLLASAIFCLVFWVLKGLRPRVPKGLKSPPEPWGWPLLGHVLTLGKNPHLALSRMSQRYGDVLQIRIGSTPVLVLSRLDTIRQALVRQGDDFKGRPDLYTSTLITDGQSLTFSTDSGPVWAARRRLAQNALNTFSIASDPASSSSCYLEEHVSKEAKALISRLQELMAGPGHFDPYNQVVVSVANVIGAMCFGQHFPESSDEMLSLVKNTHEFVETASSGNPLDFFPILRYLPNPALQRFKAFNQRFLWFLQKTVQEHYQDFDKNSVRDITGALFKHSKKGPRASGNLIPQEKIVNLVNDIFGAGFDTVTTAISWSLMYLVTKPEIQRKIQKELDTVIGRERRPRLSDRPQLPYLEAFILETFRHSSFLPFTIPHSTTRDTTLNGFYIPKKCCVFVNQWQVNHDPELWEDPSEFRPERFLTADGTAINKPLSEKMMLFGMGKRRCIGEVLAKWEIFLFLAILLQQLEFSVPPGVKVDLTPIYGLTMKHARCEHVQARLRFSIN

[10] = reduction of Shn3 3'UTR-driven luciferase in osteoblasts – cell-based, Clone20 osteoblasts, firefly luciferase, cherry-picked, dose response (AID 624132); assay type: functional;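 note: firefly luciferase luminescence from reporter carrying the Shn3 3'UTR in osteoblasts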

In the case of `O=C(COC(=O)/C(=C/c1cccs1)c1cccs1)NC(c1ccccc1)c1ccccc1`, the AC50 (Paired box protein Pax-8) is reported as 8.36 µM (active).
For `C[C@@H]1CCCCO[C@@H](CN(C)Cc2ccc(C(F)(F)F)cc2)[C@H](C)CN([C@@H](C)CO)C(=O)c2cc(NS(=O)(=O)c3ccc(Cl)cc3)ccc2O1`, the AC50 (Paired box protein Pax-8) was 9.89 µM (active).
For `Cc1ccc(OCc2nnc(SCC(=O)Nc3cccc4ccccc34)n2-c2ccccc2)cc1`, the EC50 [1] was > 120 µM (not active), the EC50 [2] was > 120 µM (not active) and the EC50 [3] was > 120 µM (not active).
For `Cc1c(C(=O)c2cccc3ccccc23)c2cccc3c2n1[C@H](CN1CCOCC1)CO3`, the EC50 [4] was 0.887 µM (active), the EC50 [5] was 55.9 µM (active) and the AC50 [6] was 3.47 µM (active). For the same compound, the AC50 (Paired box protein Pax-8) was 8.77 µM (active).
In the case of `CCOC(=O)Cc1csc(NC(=O)/C=C/c2ccc(Cl)cc2)n1`, the CC50 [7] is reported as 4.57 µM (active).
With `C(=N\N1CCN(C(c2ccccc2)c2ccccc2)CC1)/c1ccc2c(c1)OCO2` the EC50 [1] was > 120 µM (not active), the EC50 [2] was 0.672 µM (active) and the EC50 [3] was > 120 µM (not active).
For `COC(=O)[C@@]12CCCCN1[C@H](c1ccc(-c3ccc(OC)cc3)cc1)[C@@H]1C(=O)N(C)C(=O)[C@@H]12`, the CC50 [7] was 17.7 µM (active).
With `Cc1cc(Sc2ccc([N+](=O)[O-])cn2)ccc1Br` the AC50 [8] was > 70 µM (inactive) and the AC50 [9] was 31.4 µM (active).
For `O=C(c1ccc(-c2ccc(Cl)cc2)o1)N1CCN(c2ccc([N+](=O)[O-])cc2Cl)CC1`, the CC50 [7] was 9.46 µM (active) and the AC50 (INS1) was 3.58 µM (active).
With `COc1cccc(Cn2nnc3c(O)nc(C4CCCN(C(=O)c5ccccc5Cl)C4)nc32)c1` (configuration not stated) the EC50 [1] was > 120 µM (not active), the EC50 [2] was > 120 µM (not active) and the EC50 [3] was > 120 µM (not active). The AC50 (Cytochrome P450 1A2) was 25.1 µM (inconclusive).
With `CCc1ccc(CNCc2ccc(OCC(O)CN(C)Cc3ccccc3)cc2)nc1` (configuration not stated) the AC50 [10] was 4.43 µM (active), the AC50 [8] was 25 µM (active) and the AC50 [9] was 14.2 µM (active).
In the case of `COc1ccc(-c2nc(-c3ccc(NC(=O)c4ccncc4)cc3)no2)cc1OC`, the AC50 [10] is reported as 2.36 µM (active), the AC50 [8] is reported as 4.96 µM (active) and the AC50 [9] is reported as 3.85 µM (active).
With `COc1ccc(-c2csc(NC(=S)NC(=O)/C=C/c3ccco3)n2)cc1Br` the EC50 [1] was > 120 µM (not active), the EC50 [2] was > 120 µM (not active) and the EC50 [3] was 9.94 µM (inconclusive). For the same compound, the AC50 [6] was 0.47 µM (active).
In the case of `Cc1nn(C)c(Cl)c1CN1CCCC(CO)(Cc2ccccc2)C1` (configuration not stated), the CC50 [7] is reported as > 50 µM (active).
For `CCn1nc(C)c(NC(=O)/C=C/c2ccc(OC)c(COc3ccc(Br)cc3)c2)c1C`, the CC50 [7] was 31.6 µM (active), the EC50 [2] was 23.7 µM (active) and the EC50 [3] was 13.4 µM (active). For the same compound, the EC50 [4] was 2.52 µM (active) and the EC50 [5] was > 60 µM (not active).
In the case of `CNc1nc(N/N=C/c2cc3c(cc2[N+](=O)[O-])OCO3)nc(Nc2ccccc2)n1`, the EC50 [1] is reported as 9.21 µM (active), the EC50 [2] is reported as 9.97 µM (active) and the EC50 [3] is reported as 12.7 µM (active). For the same compound, the EC50 [4] was 2.42 µM (active), the EC50 [5] was > 60 µM (inconclusive) and the AC50 (INS1) was 13.2 µM (active).
With `Cc1cccc2sc(N3CCN(C(=O)C4COc5ccccc5O4)CC3)nc12` (configuration not stated) the CC50 [7] was 25.8 µM (active).
For `CCCCNc1nc2c(c(=O)n(C)c(=O)n2C)n1Cc1cccc(OC)c1`, the AC50 [10] was 0.284 µM (active), the AC50 [8] was 3.87 µM (active) and the AC50 [9] was 1.13 µM (active).
With `Cc1oc(=O)c(NC(=O)c2ccc(Cl)cc2)cc1C(=O)c1ccccc1` the AC50 [10] was 32.1 µM (active) and the AC50 [8] was > 70 µM (inactive).
For `Fc1cnc(N/N=C/c2ccc(-c3ccc(Br)cc3)o2)nc1N1CCOCC1`, the CC50 [7] was 6.89 µM (active).
With `Cc1ccc(S(=O)(=O)N(C)C[C@H]2Oc3ccc(NC(=O)Nc4ccc(C(F)(F)F)cc4)cc3CC(=O)N([C@H](C)CO)C[C@@H]2C)cc1` the AC50 (Paired box protein Pax-8) was 7.34 µM (active).
For `Cc1nn(Cc2ccccc2Cl)c2sc(C(=O)NC(C)(C)C)cc12`, the CC50 [7] was > 50 µM (active).
For `CN(C#N)c1nccc(-c2cccs2)n1`, the CC50 [7] was 23.8 µM (active).
For `Cn1c(SCc2ccc(F)cc2Cl)nc2ccccc2c1=O`, the AC50 [10] was 8.65 µM (active), the AC50 [8] was 8.38 µM (active) and the AC50 [9] was 3.09 µM (active).
